Test results taken from patent US11717013B1, “Micronutrient combination to reduce blood pressure” (priority 2022, dated 2023).

Target: T1, Angiotensin I Converting Enzyme isolated from cultured human aortic endothelial cells (Homo sapiens, UniProt P12821)
T1 construct: host or cells: human aortic endothelial cells (AoEC), lysed with CelLytic M
Experiment: ACE activity assay, ACE isolated from cultured human aortic endothelial cells
Format: biochemical
Settings: 200 mcg/ml (FIG. 5); read-out: inhibition of ACE1 activity
Description: ACE 1 activity: Effects of New Micronutrient composition on catalytic activity of Angiotensin I Converting Enzyme (ACE) was analyzed using recombinant catalytic ACE domain (Sigma) or ACE isolated from cultured human aortic endothelial cells (AoEC) with ACE Activity Assay Kit (Fluorometric, Sigma, Catalog Number CS0002) in accordance with manufacturer's protocol. For preparation of cell lysate ACE human AoEC (Lonza) were plated in 75 cm2 plastic flask at 6th passage and cultured with EGB-2 endothelial cell culture medium (Lonza) in 5%CO2 at 37 °C until cell forming a confluent layer. Cells were washed twice with 10 ml phosphate buffered solution (PBS) and lysated by scratching and resuspending in 5 ml CelLytic™ M solution (Sigma) after 15 min incubation at room temperature. Results are expressed as percentage of untreated controls presented as averages +/− SD from three replicates. The results on FIG. 4 show concentration dependent inhibitory effect of the micronutrient composition for blood pressure lowering on catalytic activity of Angiotensin1 converting enzyme. Changes in ACE1 activity are expressed in % compared to control. The formula applied at 3 mcg/ml inhibits ACE1 by 20% with the most pronounced inhibitory effect of 90% and 97% obtained at 50 mcg/ml and 200 mcg/ml respectively. […]

T1 sequence (P12821 30-1306): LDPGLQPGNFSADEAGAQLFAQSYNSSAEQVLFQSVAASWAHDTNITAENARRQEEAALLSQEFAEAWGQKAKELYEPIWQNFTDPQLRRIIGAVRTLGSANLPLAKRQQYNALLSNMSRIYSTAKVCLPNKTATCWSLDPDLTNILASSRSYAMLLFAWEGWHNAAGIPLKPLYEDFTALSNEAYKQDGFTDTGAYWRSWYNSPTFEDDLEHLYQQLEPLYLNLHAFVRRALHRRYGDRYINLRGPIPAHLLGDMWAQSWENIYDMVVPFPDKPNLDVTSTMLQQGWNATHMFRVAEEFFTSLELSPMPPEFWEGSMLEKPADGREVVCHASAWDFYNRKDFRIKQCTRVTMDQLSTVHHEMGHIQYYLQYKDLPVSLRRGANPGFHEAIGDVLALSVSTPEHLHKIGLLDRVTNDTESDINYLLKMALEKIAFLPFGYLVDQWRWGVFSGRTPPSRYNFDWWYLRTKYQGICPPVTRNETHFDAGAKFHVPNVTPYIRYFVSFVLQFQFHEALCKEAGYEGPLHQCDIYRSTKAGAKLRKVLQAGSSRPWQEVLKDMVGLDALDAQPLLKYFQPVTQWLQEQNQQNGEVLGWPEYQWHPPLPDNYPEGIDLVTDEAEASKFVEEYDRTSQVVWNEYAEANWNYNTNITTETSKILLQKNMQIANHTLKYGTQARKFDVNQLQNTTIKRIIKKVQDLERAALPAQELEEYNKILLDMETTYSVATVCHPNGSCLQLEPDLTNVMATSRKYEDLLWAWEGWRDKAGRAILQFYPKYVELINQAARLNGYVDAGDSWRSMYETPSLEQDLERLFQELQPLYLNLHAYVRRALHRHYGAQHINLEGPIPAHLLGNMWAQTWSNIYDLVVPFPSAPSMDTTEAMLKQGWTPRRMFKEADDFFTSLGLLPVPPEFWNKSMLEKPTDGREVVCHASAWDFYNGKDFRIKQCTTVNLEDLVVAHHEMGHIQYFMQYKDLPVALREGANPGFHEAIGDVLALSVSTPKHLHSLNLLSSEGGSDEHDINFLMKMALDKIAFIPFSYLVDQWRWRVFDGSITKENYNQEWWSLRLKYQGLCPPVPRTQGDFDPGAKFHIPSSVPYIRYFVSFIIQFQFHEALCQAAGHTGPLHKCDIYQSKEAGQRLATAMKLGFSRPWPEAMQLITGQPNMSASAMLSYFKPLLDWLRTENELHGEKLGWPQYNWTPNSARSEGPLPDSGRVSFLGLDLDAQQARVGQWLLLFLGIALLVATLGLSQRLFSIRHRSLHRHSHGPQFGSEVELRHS

inhibition at 200 µg/mL: 16%
SMILES: NCCCC[C@H](N[C@@H](CCc1ccccc1)C(=O)O)C(=O)N1CCC[C@H]1C(=O)O [Lisinopril]
